Assay results as given in patent US20240092835A1, “NOVEL PEPTIDES CAPABLE OF ALTERING NK CELL ACTIVITY” (Massachusetts Institute of Technology, priority 2022, published 2024).

What was measured:
Type in all cases: cell-based, human
NKG2A−/NKG2C+ NK cells = assay: NK cell activation markers in NKG2A-/NKG2C+ NK cells incubated with peptide and K562 expressing HLA-E (activation); details: NKG2A-/NKG2C+ NK cells, K562/HLA-E
Description: (§1) A human immortalized myelogenous leukemia cell line (K562), which expresses HLA-E was incubated with novel peptides (Table 1) derived from the human proteome or human cytomegalovirus proteome. […] Controls assessments were also performed using NKG2A−/NKG2C− cells (Tables 10-13). Inhibition was indicated by a decrease in percent cells positive for cell surface markers, while activation was indicated by an increase in percent cells positive for cell surface markers.

NKG2A+/NKG2C− NK cells = assay: NK cell activation markers in NKG2A+/NKG2C- NK cells incubated with peptide and K562 expressing HLA-E (inhibition); details: NKG2A+/NKG2C- NK cells, K562/HLA-E
Description: as §1

NKG2A−/NKG2C− NK cells = assay: NK cell activation markers in control NKG2A-/NKG2C- NK cells incubated with peptide and K562 expressing HLA-E
Description: as §1

## VMAPRTLIL [VMAPRTLIL (LIL), positive control peptide, reference compound]
NKG2A−/NKG2C+ NK cells; Trial 1
  percentage of CCL3+ NK cells: 76.7%
  percentage of CD107+ NK cells: 74.1%
  percentage of IFNG+ NK cells: 64.1%
  percentage of TNF+ NK cells: 48.5%
NKG2A−/NKG2C+ NK cells; Trial 2
  percentage of CCL3+ NK cells: 92%
  percentage of CD107+ NK cells: 87%
  percentage of IFNG+ NK cells: 79.8%
  percentage of TNF+ NK cells: 62.5%
NKG2A−/NKG2C+ NK cells; Trial 3
  percentage of CCL3+ NK cells: 85.4%
  percentage of CD107+ NK cells: 85.3%
  percentage of IFNG+ NK cells: 78.1%
  percentage of TNF+ NK cells: 61.4%
NKG2A−/NKG2C+ NK cells; Trial 4
  percentage of CCL3+ NK cells: 69%
  percentage of CD107+ NK cells: 73.4%
  percentage of IFNG+ NK cells: 59.7%
  percentage of TNF+ NK cells: 50.4%
NKG2A−/NKG2C+ NK cells; Trial 5
  percentage of CCL3+ NK cells: 79.6%
  percentage of CD107+ NK cells: 79.9%
  percentage of IFNG+ NK cells: 72.5%
  percentage of TNF+ NK cells: 66.3%
NKG2A−/NKG2C+ NK cells; Trial 6
  percentage of CCL3+ NK cells: 56.6%
  percentage of CD107+ NK cells: 63.2%
  percentage of IFNG+ NK cells: 45.9%
  percentage of TNF+ NK cells: 35.5%
NKG2A+/NKG2C− NK cells; Trial 1
  percentage of CCL3+ NK cells: 1.59%
  percentage of CD107a+ NK cells: 0.35%
  percentage of IFNG+ NK cells: 0%
  percentage of TNF+ NK cells: 0%
NKG2A+/NKG2C− NK cells; Trial 2
  percentage of CCL3+ NK cells: 14.4%
  percentage of CD107a+ NK cells: 2.73%
  percentage of IFNG+ NK cells: 0.59%
  percentage of TNF+ NK cells: 0.39%
NKG2A+/NKG2C− NK cells; Trial 3
  percentage of CCL3+ NK cells: 4.32%
  percentage of CD107a+ NK cells: 1.95%
  percentage of IFNG+ NK cells: 0.87%
  percentage of TNF+ NK cells: 0.46%
NKG2A+/NKG2C− NK cells; Trial 4
  percentage of CCL3+ NK cells: 0.75%
  percentage of CD107a+ NK cells: 0.77%
  percentage of IFNG+ NK cells: 0.08%
  percentage of TNF+ NK cells: 0.08%
NKG2A+/NKG2C− NK cells; Trial 5
  percentage of CCL3+ NK cells: 1.56%
  percentage of CD107a+ NK cells: 0.56%
  percentage of IFNG+ NK cells: 0.06%
  percentage of TNF+ NK cells: 0.06%
NKG2A+/NKG2C− NK cells; Trial 6
  percentage of CCL3+ NK cells: 0.92%
  percentage of CD107a+ NK cells: 0.92%
  percentage of IFNG+ NK cells: 0.05%
  percentage of TNF+ NK cells: 0.05%
NKG2A−/NKG2C− NK cells; Trial 1
  percentage CCL3+ NK cells: 31.4%
  percentage CD107+ NK cells: 24.4%
  percentage TNF+ NK cells: 3.46%
  percentage of IFNG+ NK cells: 15.5%
NKG2A−/NKG2C− NK cells; Trial 2
  percentage CCL3+ NK cells: 54%
  percentage CD107+ NK cells: 33.4%
  percentage TNF+ NK cells: 7.41%
  percentage of IFNG+ NK cells: 22.8%
NKG2A−/NKG2C− NK cells; Trial 3
  percentage CCL3+ NK cells: 46.1%
  percentage CD107+ NK cells: 43.2%
  percentage TNF+ NK cells: 13.6%
  percentage of IFNG+ NK cells: 36.7%
NKG2A−/NKG2C− NK cells; Trial 4
  percentage CCL3+ NK cells: 30.8%
  percentage CD107+ NK cells: 26.4%
  percentage TNF+ NK cells: 8.21%
  percentage of IFNG+ NK cells: 18.7%
NKG2A−/NKG2C− NK cells; Trial 5
  percentage CCL3+ NK cells: 23.8%
  percentage CD107+ NK cells: 17.9%
  percentage TNF+ NK cells: 4.32%
  percentage of IFNG+ NK cells: 12.1%
NKG2A−/NKG2C− NK cells; Trial 6
  percentage CCL3+ NK cells: 21.4%
  percentage CD107+ NK cells: 19%
  percentage TNF+ NK cells: 3.8%
  percentage of IFNG+ NK cells: 9.39%
